Experimental data: patent US11912994B2 (The General Hospital Corporation, priority 2015, dated 2024)

Columns and labels:
Assay type in all cases: cell-based, mouse
[1] = tested on: Mecp2 on the Xi (Mecp2:luciferase fusion); experiment: Luciferase screen in Mecp2-Luc fusion Xi cell line
Description: To determine whether an LNA targeting XIST could also be used in addition to or as an alternative to an agent described herein, experiments were performed in the following cells: immortalized monoclonal MEFs with the reporter GFP (Bird) or LUC (Bedalov) fused to Mecp2, on the Xi or Xa, immortalized human fibroblasts from a […] with Rett syndrome (Coriell) and primary mouse cortical neurons.
The LNAs were designed with the Exiqon web tool. Xist LNA for mouse ([…]; SEQ ID NO:50) targets exon 1 between rep C and rep D. The human Xist LNAs target the following sequences: A1: […]; SEQ ID NO:51; A2: […]; SEQ ID NO:52; A3: […]; SEQ ID NO:53. […] 5-azadeoxycitidine (in DMSO) was added to a final concentration of 0.5 μM (except in the titration experiment 0.1-2.5 μM).
Luciferase experiments were performed on a Microbeta2 LumiJet with a luciferase assay system (Promega). […] Afterwards, the cells were trypsinized, washed, and lysed using cell culture lysis reagent. Normalized measurements were performed in 96 well plates, during 10 seconds after a 2 second incubation period.

[2] = tested on: GFP transgene on the inactive X (Xi-TgGFP fibroblasts); experiment: Assay for the reactivation of Xi-TgGFP (GFP RT-qPCR); settings: single drug 0.3 μM, shControl
From the text: Xi-TgGFP (68-5-11) tail-tip fibroblasts (TTF) were initially derived from a single female pup, a daughter of a cross between aM castaneus male and aM musculus female, homozygous for an X-linked GFP transgene driven by a strong, ubiquitous promoter (58). The fibroblasts were immortalized by SV40 transformation, and clonal lines were derived from individual GFP-negative cells selected by fluorescence-activated cell sorting. In our experience, occasional clones with undetectable GFP expression nevertheless have the transgene located on the active X chromosome.
A cocktail of 3 shRNA viruses were used for infections (Table 2) followed with puromycin selection using standard methodology. In all the experiments, polyclonal knock down cells were used.
RNA was isolated by Trizol twice, with an intermittent TurboDNase treatment after the first isolation for 30 min at 37° C. One μg RNA was used for each of the RT+ and RT− reactions (Superscript III, Invitrogen) followed by the SYBR green qPCR using the primers listed in Table 3, with annealing temperature of 60° C. for 45 cycles. The relative efficiency of Xi-TgGFP reactivations was calculated by comparing to U1 snRNA as the internal control.

[3] = Drug concentration relative to IC50 / toxicity in fibroblasts; settings: 0.3 μM
[4] = trial 1, 20 uM LNA, 0.5 uM aza, 3 days, 1 10^5 cells/ml, 24-well

Which LCPS [1, 4] does the source give for “xist: Xist LNA for mouse (TCTTGGTTACTAACAG; SEQ ID NO:50), targets exon 1 between rep C and rep D (LNA-modified, pattern not given here)” here?
The LCPS was 0.

And the “raw CPS” value [1, 4]?
Its value is 29.8.

With Nc1ncn([C@H]2C[C@H](O)[C@@H](CO)O2)c(=O)n1 [AzadC, 5-aza-2′-deoxycytidine] as the compound, how does the “Reactivation together with Xist LNA” value ([1]; added to Xist LNA, 0.5 μM, reporter not specified) read?
Its value is “Synergistic reactivation”.

With COc1cc([C@@H]2c3cc4c(cc3[C@@H](O[C@@H]3O[C@@H]5CO[C@@H](C)O[C@H]5[C@H](O)[C@H]3O)[C@H]3COC(=O)[C@H]23)OCO4)cc(OC)c1O [etoposide] as the compound, how does the “GFP reactivation” value [2] read?
The value was “minimally reactivated GFP”.

For Nc1ncn([C@@H]2O[C@H](CO)[C@@H](O)[C@H]2O)c(=O)n1 [5′-azacytidine, 4-amino-1-beta-D-ribofuranosyl-s-triazin-2(1H)-one], which “GFP reactivation” value [2] is on record?
Its value is “minimally reactivated GFP”.

And the “Toxicity at the concentration used” value [3]?
The value was “nontoxic”.
